Read-outs that look alike come from different tables or passages of the source.
What was measured:
[1] = system: SW1573 (non-small cell lung); assay: antiproliferative assay (NCI protocol), SW1573; assay type: cell-based, human; details: antiproliferative activity
Experimental: (§1) The antiproliferative assays were conducted following the protocol of the US National Cancer Institute (NCI), with minor modifications.
(§2) The coumarin-benzoxazole hybrids were also tested as antiproliferative agents against a panel of six human solid tumour cell lines (Table 2): A549 (non-small cell lung), HBL-100 (breast), HeLa (cervix), SW1573 (non-small cell lung) as examples of drug-sensitive lines, and T-47D (breast) and WiDr (colon) as multidrug-resistant lines. A non-tumour cell line (BJ-hTert, human fibroblasts) was also used for analysing the selectivity. Chemotherapeutic agents 5-fluorouracyl (5-FU) and cisplatin (CDDP) were included in the study as drug references.

[2] = system: WiDr (colon); assay: antiproliferative assay (NCI protocol), WiDr; assay type: cell-based, human; details: antiproliferative activity, multidrug-resistant line
Experimental: as §1, §2

[3] = system: HeLa (cervix); assay: antiproliferative assay (NCI protocol), HeLa; assay type: cell-based, human; details: antiproliferative activity
Experimental: as §1, §2

[4] = system: A549 (non-small cell lung); assay: antiproliferative assay (NCI protocol), A549; assay type: cell-based, human; details: antiproliferative activity
Experimental: as §1, §2

[5] = system: HBL-100 (breast); assay: antiproliferative assay (NCI protocol), HBL-100; assay type: cell-based, human; details: antiproliferative activity
Experimental: as §1, §2

[6] = system: BJ-hTert, human fibroblasts; assay: antiproliferative assay (NCI protocol), non-tumour BJ-hTert; assay type: cell-based; details: for GI50: non-tumour cell line, human fibroblasts; for activity against the non-tumour cell line (in words): BJ-hTert
Experimental: as §1, §2

[7] = system: T-47D (breast); assay: antiproliferative assay (NCI protocol), T-47D; assay type: cell-based, human; details: antiproliferative activity, multidrug-resistant line
Experimental: as §1, §2

[8] = target: T1, human CA I (Homo sapiens, UniProt P00915); set-up: made in house; method as in PMID 22077347; details: read-out: inhibition of hCAI; cited from earlier work
[9] = target: T2, human CA II (Homo sapiens, UniProt P00918); set-up: made in house; method as in PMID 22077347; details: read-out: inhibition of hCAII; cited from earlier work
[10] = target: human CA IX (Homo sapiens, UniProt Q16790); assay: stopped-flow CO2 hydrase assay, CA IX; details: for Selectivity ratio I/IX: ratio of Ki CA I / CA IX; for Selectivity ratio II/IX: ratio of Ki CA II / CA IX; for decreased activity against CA IX compared to non-substituted counterpart 8b: versus 8b
Excerpt: (§3) A stopped-flow CO2 hydrase assay has been employed as reported earlier[10–12].

[11] = target: human CA IV (Homo sapiens, UniProt P22748); assay: stopped-flow CO2 hydrase assay, CA IV
Excerpt: as §3

[12] = target: human CA XII (Homo sapiens, UniProt O43570); assay: stopped-flow CO2 hydrase assay, CA XII; details: for Selectivity ratio I/XII: ratio of Ki CA I / CA XII; for Selectivity ratio II/XII: ratio of Ki CA II / CA XII
Excerpt: as §3

[13] = target: human CA VII (Homo sapiens, UniProt P43166); assay: stopped-flow CO2 hydrase assay, CA VII
Excerpt: as §3

[14] = target: T2, human CA II; assay: stopped-flow CO2 hydrase assay, CA II
Excerpt: as §3

[15] = target: T1, human CA I; assay: stopped-flow CO2 hydrase assay, CA I
Excerpt: as §3

[16] = system: panel of six human solid tumour cell lines; assay: antiproliferative assay, whole panel of tumour cell lines; assay type: cell-based
Experimental: as §1, §2

Sequence of human CA XII (O43570 25-354): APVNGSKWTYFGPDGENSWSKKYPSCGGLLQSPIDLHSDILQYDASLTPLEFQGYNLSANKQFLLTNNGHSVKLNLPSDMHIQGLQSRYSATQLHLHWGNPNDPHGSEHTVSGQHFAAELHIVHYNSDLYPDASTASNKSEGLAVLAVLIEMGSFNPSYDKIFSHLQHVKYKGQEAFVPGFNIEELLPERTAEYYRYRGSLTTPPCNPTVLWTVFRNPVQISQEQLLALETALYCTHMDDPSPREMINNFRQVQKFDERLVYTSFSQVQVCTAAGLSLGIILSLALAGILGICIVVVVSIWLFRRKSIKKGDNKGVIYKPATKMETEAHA
Sequence of human CA VII (P43166 whole entry): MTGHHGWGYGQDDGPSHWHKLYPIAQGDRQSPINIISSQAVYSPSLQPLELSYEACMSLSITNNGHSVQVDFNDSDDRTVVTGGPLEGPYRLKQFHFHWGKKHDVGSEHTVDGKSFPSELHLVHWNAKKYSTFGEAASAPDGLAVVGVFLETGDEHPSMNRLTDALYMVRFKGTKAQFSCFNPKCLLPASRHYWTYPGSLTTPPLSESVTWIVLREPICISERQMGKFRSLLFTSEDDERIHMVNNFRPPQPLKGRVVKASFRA
Sequence of human CA IV (P22748 19-312): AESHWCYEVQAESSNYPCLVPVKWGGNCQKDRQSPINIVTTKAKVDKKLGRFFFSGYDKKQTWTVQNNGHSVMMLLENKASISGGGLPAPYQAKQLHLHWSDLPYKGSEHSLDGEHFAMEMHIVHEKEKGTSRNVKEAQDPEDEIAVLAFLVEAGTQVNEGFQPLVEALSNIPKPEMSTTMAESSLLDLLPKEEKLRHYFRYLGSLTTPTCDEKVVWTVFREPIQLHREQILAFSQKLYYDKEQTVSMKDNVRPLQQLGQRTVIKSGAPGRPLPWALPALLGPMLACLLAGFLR
T1 sequence (P00915 whole entry): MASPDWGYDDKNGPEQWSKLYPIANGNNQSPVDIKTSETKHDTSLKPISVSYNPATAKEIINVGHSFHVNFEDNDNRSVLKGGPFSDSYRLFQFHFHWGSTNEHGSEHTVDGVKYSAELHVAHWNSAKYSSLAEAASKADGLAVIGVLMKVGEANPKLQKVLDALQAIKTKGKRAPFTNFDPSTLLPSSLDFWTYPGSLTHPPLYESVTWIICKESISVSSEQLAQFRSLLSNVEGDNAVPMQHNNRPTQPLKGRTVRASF

SMILES	GI50 ([1]; Homo sapiens, SW1573)	GI50 ([2]; Homo sapiens, WiDr)	GI50 ([3]; Homo sapiens, HeLa)	GI50 ([4]; Homo sapiens, A549)	GI50 ([5]; Homo sapiens, HBL-100)	GI50 ([6]; Fibroblast)	GI50 ([7]; Homo sapiens, T47D)	Ki [10]	Selectivity ratio I/IX [10]	Selectivity ratio II/IX [10]	Ki [11]	Ki [12]	Selectivity ratio I/XII [12]	Selectivity ratio II/XII [12]	Ki [13]	Ki [14]	Ki [15]	other results
O=c1[nH]cc(F)c(=O)[nH]1 [5-Fluorouracil, reference compound]	3.3 ± 1.2 µM	49 ± 7 µM	16 ± 5 µM	2.2 ± 0.3 µM	4.4 ± 0.7 µM	5.5 ± 0.5 µM	43 ± 16 µM	–	–	–	–	–	–	–	–	–	–	–
[NH2][Pt]([NH2])([Cl])[Cl] [CDDP, cisplatin, reference compound]	–	–	–	–	–	–	–	–	–	–	–	–	–	–	–	–	–	GI50 [1]: 2.7 ± 0.4 µM; GI50 [2]: 26 ± 4 µM; GI50 [3]: 1.8 ± 0.5 µM; GI50 [4]: 4.9 ± 0.2 µM; GI50 [5]: 1.9 ± 0.2 µM; GI50 [6]: 14 ± 2 µM; GI50 [7]: 17 ± 3 µM
Cc1cc(=O)oc2cc(O)ccc12 [Compound 3a, 4-methylumbelliferone]	–	–	–	–	–	–	–	–	–	–	–	–	–	–	–	–	–	Ki [8]: > 100 µM; Ki [9]: > 100 µM
Cc1cc(=O)oc2cc(OCCCNc3nc4ccccc4o3)ccc12 [Compound 8a]	29 ± 4 µM	37 ± 4 µM	30 ± 2 µM	32 ± 1 µM	41 ± 5 µM	> 50 µM	33 ± 3 µM	0.0742 µM	>134.8	>134.8	0.839 µM	0.0844 µM	>118.5	>118.5	> 10 µM	> 10 µM	> 10 µM	activity against the non-tumour cell line (in words) [6]: weak activity
Cc1cc(=O)oc2cc(OCCCCCNc3nc4ccccc4o3)ccc12 [Compound 8b]	33 ± 4 µM	33 ± 1 µM	39 ± 1 µM	15 ± 6 µM	49 ± 6 µM	> 100 µM	38 ± 10 µM	0.0707 µM	>141.4	>141.4	0.95 µM	0.0845 µM	>118.3	>118.3	> 10 µM	> 10 µM	> 10 µM	–
Cc1cc(=O)oc2cc(OCCCCCCNc3nc4ccccc4o3)ccc12 [Compound 8c]	> 100 µM	> 100 µM	96 ± 7 µM	8.3 ± 1.6 µM	> 100 µM	> 100 µM	> 100 µM	0.0823 µM	>121.5	>121.5	0.984 µM	0.0651 µM	>153.6	>153.6	> 10 µM	> 10 µM	> 10 µM	–
Cc1c(C)c2ccc(OCCCCCCNc3nc4ccccc4o3)cc2oc1=O [Compound 8d]	20 ± 3 µM	> 100 µM	29 ± 8 µM	15 ± 3 µM	53 ± 14 µM	> 50 µM	> 100 µM	0.0645 µM	>155.0	>155.0	0.802 µM	0.0698 µM	>143.3	>143.3	> 10 µM	> 10 µM	> 10 µM	activity against the non-tumour cell line (in words) [6]: weak activity
Cc1c(Cl)c(=O)oc2cc(OCCCCCCNc3nc4ccccc4o3)ccc12 [Compound 8e]	3.1 ± 0.5 µM	4.2 ± 0.5 µM	3.9 ± 0.7 µM	2.6 ± 0.5 µM	5.1 ± 1.4 µM	> 100 µM	4.3 ± 0.1 µM	0.0743 µM	>134.6	>134.6	0.82 µM	0.0757 µM	>132.1	>132.1	> 10 µM	> 10 µM	> 10 µM	GI50 ([16]; Homo sapiens, range over the tumour cell lines, read-out: GI50 for all cell lines): 2.6 to 5.1 µM; increased activity compared to 5-FU ([16]; multidrug-resistant cell lines): up to 11.7 fold; increased activity compared to CDDP ([16]; multidrug-resistant cell lines): up to 6.2 fold
O=c1cc(-c2ccccc2)c2ccc(OCCCCCCNc3nc4ccccc4o3)cc2o1 [Compound 8f]	> 100 µM	> 100 µM	> 100 µM	> 100 µM	> 100 µM	> 100 µM	> 100 µM	0.271 µM	>36.9	>36.9	0.808 µM	0.316 µM	>31.6	>31.6	> 10 µM	> 10 µM	> 10 µM	impairment of inhibition of CA IX compared to Me-counterpart 8c ([10]; versus 8c): 3 fold; antiproliferative activity against all cell lines (in words) [16]: completely abolished activity against all cell lines; impairment of inhibition of CA XII compared to Me-counterpart 8c ([12]; versus 8c): 5 fold
Cc1ccc2oc(NCCCCCOc3ccc4c(C)cc(=O)oc4c3)nc2c1 [Compound 8g]	> 100 µM	> 100 µM	> 100 µM	> 100 µM	> 100 µM	> 100 µM	> 100 µM	0.417 µM	>24.0	>24.0	0.762 µM	0.0673 µM	>148.6	>148.6	> 10 µM	> 10 µM	> 10 µM	decreased activity against CA IX compared to non-substituted counterpart 8b [10]: 6 fold; antiproliferative activity against all cell lines (in words) [16]: completely abolished activity against all cell lines
Cc1cc(=O)oc2cc(OCCCCCNc3nc4cc(Br)ccc4o3)ccc12 [Compound 8h]	14 ± 1 µM	29 ± 1 µM	16 ± 1 µM	6.5 ± 3.1 µM	23 ± 5 µM	> 100 µM	32 ± 7 µM	0.757 µM	>13.2	>13.2	0.792 µM	0.0807 µM	>123.9	>123.9	> 10 µM	> 10 µM	> 10 µM	decreased activity against CA IX compared to non-substituted counterpart 8b [10]: 11 fold
Cc1cc(=O)oc2cc(OCCCCCNc3nc4cc(-c5ccccc5)ccc4o3)ccc12 [Compound 8i]	60 ± 4 µM	78 ± 38 µM	28 ± 13 µM	41 ± 20 µM	30 ± 9 µM	25 ± 6 µM	> 100 µM	0.0332 µM	>301.2	>301.2	6.27 µM	0.0571 µM	>175.1	>175.1	> 10 µM	> 10 µM	> 10 µM	activity against the non-tumour cell line (in words) [6]: moderate antiproliferative agent
Cc1cc(=O)oc2cc(OCCCCCNc3nc4cc(S(N)(=O)=O)ccc4o3)ccc12 [Compound 8j]	29 ± 8 µM	29 ± 9 µM	21 ± 7 µM	13 ± 3 µM	27 ± 8 µM	> 100 µM	34 ± 8 µM	0.0907 µM	8.9	5.7	3.47 µM	0.0506 µM	15.9	10.2	0.381 µM	0.516 µM	0.806 µM	–
